Target: TrkA (Homo sapiens (Human), UniProt P04629)
Experiment: TrkA Omnia Assay
Format: biochemical
Settings: averaged IC50; 20 nM enzyme, 500 μM ATP, 10 μM peptide substrate
Summary of the method: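 Continuous fluorescent kinase read-out (ex 360 nm, em 485 nm) over 70 min, with initial rates fitted to 4- or 5-parameter logistic curves for IC50. Final conditions: 500 μM ATP, 10 μM Omnia Tyr Peptide #4, 20 nM TrkA, MOPS pH 7.5 buffer with MgCl2 and Triton X-100; enzyme and compound preincubated 10 min at ambient temperature.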

Sequence of TrkA (P04629 33-796): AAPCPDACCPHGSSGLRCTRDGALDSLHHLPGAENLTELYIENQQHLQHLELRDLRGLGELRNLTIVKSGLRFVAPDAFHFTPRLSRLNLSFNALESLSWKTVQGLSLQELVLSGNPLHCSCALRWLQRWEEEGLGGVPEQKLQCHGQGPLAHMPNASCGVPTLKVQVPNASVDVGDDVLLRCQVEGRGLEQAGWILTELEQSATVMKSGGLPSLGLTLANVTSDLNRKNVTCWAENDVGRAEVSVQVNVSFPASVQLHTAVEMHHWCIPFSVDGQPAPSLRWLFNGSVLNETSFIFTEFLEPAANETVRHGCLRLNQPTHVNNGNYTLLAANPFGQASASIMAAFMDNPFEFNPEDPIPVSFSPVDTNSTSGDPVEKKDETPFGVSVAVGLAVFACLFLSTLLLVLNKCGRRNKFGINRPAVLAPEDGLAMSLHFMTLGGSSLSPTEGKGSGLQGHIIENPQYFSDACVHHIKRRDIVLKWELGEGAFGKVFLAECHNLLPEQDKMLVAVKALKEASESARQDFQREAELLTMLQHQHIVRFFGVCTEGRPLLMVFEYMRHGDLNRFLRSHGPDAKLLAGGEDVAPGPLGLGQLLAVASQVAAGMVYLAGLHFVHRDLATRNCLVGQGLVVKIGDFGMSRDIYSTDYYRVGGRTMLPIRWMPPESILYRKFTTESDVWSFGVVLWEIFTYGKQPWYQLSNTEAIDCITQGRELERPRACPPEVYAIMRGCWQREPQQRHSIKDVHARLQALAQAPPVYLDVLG

Row | SMILES | IC50
1 | N#CCN1C[C@@H](NC(=O)Nc2c3c(nn2-c2ccccc2)CCC3)[C@H](c2ccccc2)C1 [Example 188, 1-((3,4-trans)-1-(cyanomethyl)-4-phenylpyrrolidin-3-yl)-3-(2-phenyl-2,4,5,6-tetrahydrocyclopenta[c]pyrazol-3-yl)urea] | 0.1 to 1 µM
2 | N#CCN1C[C@@H](NC(=O)Nc2c3c(nn2-c2ccccc2)CCC3)[C@H](c2ccccc2)C1 [Example 189, 1-((3S,4R)-1-(cyanomethyl)-4-phenylpyrrolidin-3-yl)-3-(2-phenyl-2,4,5,6-tetrahydrocyclopenta[c]pyrazol-3-yl)urea] | 0.1 to 1 µM
3 | NC(=O)CN1C[C@@H](NC(=O)Nc2c3c(nn2-c2ccccc2)CCC3)[C@H](c2ccccc2)C1 [Example 190, 2-((3R,4S)-3-phenyl-4-(3-(2-phenyl-2,4,5,6-tetrahydrocyclopenta[c]pyrazol-3-yl)ureido)pyrrolidin-1-yl)acetamide] | 1 to 10 µM
4 | Cc1nn(-c2ccccc2)c(NC(=O)N[C@@H]2CN(CCO)C[C@H]2c2ccc(F)c(F)c2)c1C [Example 191, 1-((3S,4R)-4-(3,4-difluorophenyvl)-1-(2-hydroxyethyl)pyrrolidin-3-yl)-3-(3,4-dimethyl-1-phenyl-1H-pyrazol-5-yl)urea] | 0.1 to 1 µM
5 | O=C(Nc1c2c(nn1-c1ccccc1)CCC2)N[C@@H]1CN(CCC(F)(F)C(F)(F)F)C[C@H]1c1ccccc1 [Example 192, 1-((trans)-1-(3,3,4,4,4-pentafluorobutyl)-4-phenlpyrrrolidin-3-yl)-3-(2-phenyl-2,4,5,6-tetrahydrocyclopenta[c]pyrazol-3-yl)urea] | 0.1 to 1 µM
6 | O=C(Nc1c2c(nn1-c1ccccc1)CCC2)N[C@@H]1CN(CC(F)(F)F)C[C@H]1c1cccc(F)c1 [Example 200, 1-((3S,4R)-4-(3-fluorophenyl)-1-(2,2,2-trifluoroethyl)pyrrolidin-3-yl)-3-(2-phenyl-2,4,5,6-tetrahydrocyclopenta[c]pyrazol-3-yl)urea] | 0.1 to 1 µM
7 | Cc1nn(-c2ccccc2)c(NC(=O)N[C@@H]2CN(CC(F)(F)F)C[C@H]2c2cccc(F)c2)c1C [Example 201, 1-(3,4-dimethyl-1-phenyl-1H-pyrazol-5-yl)-3-((3S,4R)-4-(3-fluorophenyl)-1-(2,2,2-trifluoroethyl)pyrrolidin-3-yl)urea] | 0.1 to 1 µM
8 | COCCOc1nn(-c2ccccc2)c(NC(=O)N[C@@H]2CN(CC(F)(F)F)C[C@H]2c2cccc(F)c2)c1C [Example 202, 1-((3S,4R)-4-(3-fluorophenyl)-1-(2,2,2-trifluoroethyl)pyrrolidin-3-yl)-3-(3-(2-methoxyethoxy)-4-methyl-1-phenyl-1H-pyrazol-5-yl)urea] | < 0.1 µM
9 | Cn1nc(-c2ccccc2)cc1NC(=O)N[C@@H]1CN(CC(F)(F)F)C[C@H]1c1cccc(F)c1 [Example 203, 1-((3S,4R)-4-(3-fluorophenyl)-1-(2,2,2-trifluoroethyl)pyrrolidin-3-yl)-3-(1-methyl-3-phenyl-H-pyrazol-5-yl)urea] | 0.1 to 1 µM
10 | O=C(Nc1c2c(nn1-c1ccccc1)CCC2)N[C@H]1CN(CC(F)(F)F)C[C@@H]1c1cccc(F)c1 [Example 204, 1-((3R,4S)-4-(3-fluorophenyl)-1-(2,2,2-trifluoroethyl)pyrrolidin-3-yl)-3-(2-phenyl-2,4,5,6-tetrahydrocyclopenta[c]pyrazol-3-yl)urea] | < 0.1 µM
11 | O=C(Nc1c2c(nn1-c1ccccc1)CCC2)N[C@@H]1CN(CC(F)(F)F)CC1c1cccnc1 (stereo partly drawn) [Example 213, 1-(2-phenyl-2,4,56-tetrahydrocyclopenta[c]pyrazol-3-yl)-3-((trans)-4-(pyridin-3-v)-1-(2,2,2-trifluoroethyl)pyrrolidin-3-yl)urea] | 0.1 to 1 µM
12 | CCOc1nn(-c2ccccc2)c(NC(=O)N[C@@H]2CN(c3cn[nH]c3)C[C@H]2c2ccc(F)c(F)c2)c1C [Example 216, 1-((3S,4R)-4-(3,4-difluorophenyl)-1-(1H-pyrazol-4-yl)pyrrolidin-3-yl)-3-(3-ethoxy-4-methyl-1-phenyl-1H-pyrazol-5-yl)urea] | < 0.1 µM
13 | CCOc1nn(-c2ccccc2)c(NC(=O)N[C@@H]2CN(c3cn[nH]c3)C[C@H]2c2cc(F)cc(F)c2)c1C [Example 217, 1-((3S,4R)-4-(3,5-difluorophenyl)-1-(1H-pyrazol-4-yl)pyrrolidin-3-yl)-3-(3-ethoxy-4-methyl-1-phenyl-1H-pyrazol-5-yl)urea] | < 0.1 µM
14 | CCOc1nn(-c2ccccc2)c(NC(=O)N[C@@H]2CN(c3cc[nH]n3)C[C@H]2c2cc(F)cc(F)c2)c1C [Example 218, 1-((3S,4R)-4-(3,5-difluorophenyvl)-1-(1H-pyrazol-3-yl)pyrrolidin-3-yl)-3-(3-ethoxy-4-methyl-1-phenyl-1H-pyrazol-5-yl)urea] | < 0.1 µM
15 | CCOc1nn(-c2ccccc2)c(NC(=O)N[C@@H]2CN(c3c[nH]nc3C)C[C@H]2c2ccc(F)c(F)c2)c1C [Example 219, 1-((3S,4R)-4-(3,4-difluorophenyl)-1-(3-methyl-1H-pyrazol-4-yl)pyrrolidin-3-yl)-3-(3-ethoxy-4-methyl-1-phenyl-1H-pyrazol-5-yl)urea] | < 0.1 µM
16 | CCOc1nn(-c2ccccc2)c(NC(=O)N[C@@H]2CN(c3c[nH]nc3C(F)(F)F)C[C@H]2c2ccc(F)c(F)c2)c1C [Example 220, 1-((3S,4R)-4-(3,4-difluorophenyl)-1-(3-(trifluoromethyl)-1H-pyrazol-4-yl)pyrrolidin-3-yl)-3-(3-ethoxy-4-methyl-1-phenyl-1H-pyrazol-5-yl)urea] | 0.1 to 1 µM
17 | Cc1c(OC[C@H](C)O)nn(-c2ccccc2)c1NC(=O)N[C@@H]1CN(c2cn[nH]c2)C[C@H]1c1ccc(F)c(F)c1 [Example 221, 1-((3S,4R)-4-(3,4-difluorophenyl)-1-(1H-pyrazol-4-yl)pyrrolidin-3-yl)-3-(3-((S)-2-hydroxypropoxy)-4-methyl-1-phenyl-1H-pyrazol-5-yl)urea] | < 0.1 µM
18 | Cc1c(OC[C@H](O)CO)nn(-c2ccccc2)c1NC(=O)N[C@@H]1CN(c2cn[nH]c2)C[C@H]1c1ccc(F)c(F)c1 [Example 222, 1-((3S,4R)-4-(3,4-difluorophenyl)-1-(1H-pyrazol-4-yl)pyrrolidin-3-yl)-3-(3-((R)-2,3-dihydroxypropoxy)-4-methyl-1-phenyl-1H-pyrazol-5-yl)urea] | < 0.1 µM
19 | Cc1nn(-c2ccccc2)c(NC(=O)N[C@@H]2CN(c3cn[nH]c3)C[C@H]2c2cc(F)cc(F)c2)c1C [Example 223, 1-((3S,4R)-4-(3,5-difluoro-phenyl)-1-(1H-pyrazol-4-yl)pyrrolidin-3-yl)-3-(3,4-dimethyl-1-phenyl-1H-pyrazol-5-yl)urea] | < 0.1 µM
20 | Cc1nn(-c2ccccc2)c(NC(=O)N[C@@H]2CN(c3cn[nH]c3)C[C@H]2c2ccc(F)c(F)c2)c1C [Example 224, 1-((3S,4R)-4-(3,4-difluorophenyl)-1-(1H-pyrazol-4-yl)pyrrolidin-3-yl)-3-(3,4-dimethyl-1-phenyl-1H-pyrazol-5-yl)urea] | < 0.1 µM
21 | COCCCc1nn(-c2ccccc2)c(NC(=O)N[C@@H]2CN(c3cn[nH]c3)C[C@H]2c2ccc(F)c(F)c2)c1C [Example 225, 1-((3S,4R)-4-(3,4-difluorophenyl)-1-(1H-pyrazol-4-yl)pyrrolidin-3-yl)-3-(3-(3-methoxypropyl)-4-methyl-1-phenyl-1H-pyrazol-5-yl)urea] | < 0.1 µM
22 | COCCOc1nn(-c2ccccc2)c(NC(=O)N[C@@H]2CN(c3cn[nH]c3)C[C@H]2c2ccc(F)c(F)c2)c1C [Example 226, 1-((3S,4R)-4-(3,4-difluorophenyl)-1-(1H-pyrazol-4-yl)pyrrolidin-3-yl)-3-(3-(2-methoxyethoxy)-4-methyl-1-phenyl-1H-pyrazol-5-yl)urea] | < 0.1 µM
23 | Cc1c(OCC(C)(C)O)nn(-c2ccccc2)c1NC(=O)N[C@@H]1CN(c2cn[nH]c2)C[C@H]1c1ccc(F)c(F)c1 [Example 227, 1-((3S,4R)-4-(3,4-difluorophenyl)-1-(1H-pyrazol-4-yl)pyrrolidin-3-yl)-3-(3-(2-hydroxy-2-methylpropoxy)-4-methyl-1-phenyl-1H-pyrazol-5-yl)urea] | < 0.1 µM
24 | CCOc1nn(-c2ccccc2)c(NC(=O)N[C@@H]2CN(c3ccnn3C)C[C@H]2c2ccccc2)c1C [Example 228, 1-(3-ethoxy-4-methyl-1-phenyl-1H-pyrazol-5-yl)-3-((3S,4R)-1-(1-methyl-1H-pyrazol-5-yl)-4-phenylpyrrolidin-3-yl)urea] | < 0.1 µM
25 | CCOc1nn(-c2ccccc2)c(NC(=O)N[C@H]2CN(c3ccnn3C)C[C@@H]2c2ccccc2)c1C [Example 229, 1-(3-ethoxy-4-methyl-1-phenyl-1H-pyrazol-5-yl)-3-((3R,4S)-1-(1-methyl-1H-pyrazol-5-yl)-4-phenylpyrrolidin-3-yl)urea] | < 0.1 µM
26 | CCOc1nn(-c2ccccc2)c(NC(=O)N[C@@H]2CN(c3ccnn3C)C[C@H]2c2cc(F)cc(F)c2)c1C [Example 230, 1-((3S,4R)-4-(3,5-difluorophenyl)-1-(1-methyl-1H-pyrazol-5-yl)pyrrolidin-3-yl)-3-(3-ethoxy-4-methyl-1-phenyl-1H-pyrazol-5-yl)urea] | 0.1 to 1 µM
27 | CCOc1nn(-c2ccccc2)c(NC(=O)N[C@H]2CN(c3ccnn3C)C[C@@H]2c2cc(F)cc(F)c2)c1C [Example 231, 1-((3R,4S)-4-(3,5-difluorophenyl)-1-(1-methyl-1H-pyrazol-5-yl)pyrrolidin-3-yl)-3-(3-ethoxy-4-methyl-1-phenyl-1H-pyrazol-5-yl)urea] | < 0.1 µM
28 | CCOc1nn(-c2ccccc2)c(NC(=O)N[C@@H]2CN(c3ccccc3)C[C@H]2c2ccc(F)c(F)c2)c1C [Example 232, 1-((3S,4R)-4-(3,4-difluorophenyl)-1-phenylpyrrolidin-3-yl)-3-(3-ethoxy-4-methyl-1-phenyl-1H-pyrazol-5-yl)urea] | 0.1 to 1 µM
29 | CCOc1nn(-c2ccccc2)c(NC(=O)N[C@@H]2CN(c3ccccc3OC)C[C@H]2c2ccc(F)c(F)c2)c1C [Example 233, 1-((3S,4R)-4-(3,4-difluorophenyl)-1-(2-methoxyphenyl)pyrrolidin-3-yl)-3-(3-ethoxy-4-methyl-1-phenyl-1H-pyrazol-5-yl)urea] | 0.1 to 1 µM
